Data on one compound can be found in US10202356B2, “JAK2 and ALK2 inhibitors and methods for their use” (Tolero Pharmaceuticals, Inc., priority 2013, dated 2019).

In one data set the target is T1, JAK2 kinase (Homo sapiens, UniProt O60674).
T1 construct: purchased Life Technologies (Drug Discovery and Development Services, Madison, Wis.)
The experiment in a line: JAK2 kinase assay, Z'-LYTE technology. Type of data set: biochemical. On the procedure:
(§1) Biochemical assays to measure the inhibitory effects of the compounds were performed by the Drug Discovery and Development Services at Life Technologies (Madison, Wis.). JAK2 kinase assays were performed using Z′-LYTE® technology, while ALK2 inhibition was tested using a LanthaScreen® binding assay.

Another data set concerns the target T2, ALK2 (Homo sapiens, UniProt Q04771).
T2 construct: purchased Life Technologies (Drug Discovery and Development Services, Madison, Wis.)
T2 sequence (Q04771 21-509): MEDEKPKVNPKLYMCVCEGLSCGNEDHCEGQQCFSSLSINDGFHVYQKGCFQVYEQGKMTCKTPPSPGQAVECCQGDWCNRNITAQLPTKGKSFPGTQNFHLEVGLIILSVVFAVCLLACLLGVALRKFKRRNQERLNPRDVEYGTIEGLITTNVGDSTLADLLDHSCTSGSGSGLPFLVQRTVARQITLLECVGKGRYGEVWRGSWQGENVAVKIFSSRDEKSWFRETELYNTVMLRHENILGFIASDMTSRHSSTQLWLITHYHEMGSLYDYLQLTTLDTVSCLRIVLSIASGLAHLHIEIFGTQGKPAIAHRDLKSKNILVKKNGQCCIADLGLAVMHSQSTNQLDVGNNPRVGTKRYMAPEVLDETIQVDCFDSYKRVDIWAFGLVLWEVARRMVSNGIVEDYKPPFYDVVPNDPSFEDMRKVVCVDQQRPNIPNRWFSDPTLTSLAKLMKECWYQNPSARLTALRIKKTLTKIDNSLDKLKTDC
Put plainly: ALK2 inhibition, LanthaScreen binding assay. On the procedure: as §1

The next data set has as its system hepcidin expression. Put plainly: Liver hepcidin expression in mice after single oral dose, real-time RT-PCR. Type of data set: in vivo. Particulars: single oral dose 250 mg/kg, liver mRNA after six hours. How it is done: Hepcidin expression in the mice treated with compounds 4 and 12 was compared to hepcidin expression in mice treated with compound A. In this experiment, mice were treated orally with a single dose of test compound. After six hours, livers were removed from euthanized animals and RNA extracted. Hepcidin mRNA levels were determined by real-time RT-PCR as described above.

Data set [1] can be described thus: Pharmacokinetic profile, IV and PO administration. Further details: AUC 0-inf: concentration or dose not given beside the values. Type of data set: in vivo, female rats. As to conditions: for AUC 0-inf / Cmax / Tmax / half-life: female, rat, plasma; for AUC 0-inf: read-out: AUC 0-inf; for Cmax: read-out: Cmax; for Tmax: read-out: Tmax; for half-life: read-out: t½ (converted).

Where [2] appears, read: PO, free base or salt form as labelled.

Read-outs that look alike come from different tables or passages of the source. Some results are limits rather than exact numbers.

T1 sequence (O60674 whole entry): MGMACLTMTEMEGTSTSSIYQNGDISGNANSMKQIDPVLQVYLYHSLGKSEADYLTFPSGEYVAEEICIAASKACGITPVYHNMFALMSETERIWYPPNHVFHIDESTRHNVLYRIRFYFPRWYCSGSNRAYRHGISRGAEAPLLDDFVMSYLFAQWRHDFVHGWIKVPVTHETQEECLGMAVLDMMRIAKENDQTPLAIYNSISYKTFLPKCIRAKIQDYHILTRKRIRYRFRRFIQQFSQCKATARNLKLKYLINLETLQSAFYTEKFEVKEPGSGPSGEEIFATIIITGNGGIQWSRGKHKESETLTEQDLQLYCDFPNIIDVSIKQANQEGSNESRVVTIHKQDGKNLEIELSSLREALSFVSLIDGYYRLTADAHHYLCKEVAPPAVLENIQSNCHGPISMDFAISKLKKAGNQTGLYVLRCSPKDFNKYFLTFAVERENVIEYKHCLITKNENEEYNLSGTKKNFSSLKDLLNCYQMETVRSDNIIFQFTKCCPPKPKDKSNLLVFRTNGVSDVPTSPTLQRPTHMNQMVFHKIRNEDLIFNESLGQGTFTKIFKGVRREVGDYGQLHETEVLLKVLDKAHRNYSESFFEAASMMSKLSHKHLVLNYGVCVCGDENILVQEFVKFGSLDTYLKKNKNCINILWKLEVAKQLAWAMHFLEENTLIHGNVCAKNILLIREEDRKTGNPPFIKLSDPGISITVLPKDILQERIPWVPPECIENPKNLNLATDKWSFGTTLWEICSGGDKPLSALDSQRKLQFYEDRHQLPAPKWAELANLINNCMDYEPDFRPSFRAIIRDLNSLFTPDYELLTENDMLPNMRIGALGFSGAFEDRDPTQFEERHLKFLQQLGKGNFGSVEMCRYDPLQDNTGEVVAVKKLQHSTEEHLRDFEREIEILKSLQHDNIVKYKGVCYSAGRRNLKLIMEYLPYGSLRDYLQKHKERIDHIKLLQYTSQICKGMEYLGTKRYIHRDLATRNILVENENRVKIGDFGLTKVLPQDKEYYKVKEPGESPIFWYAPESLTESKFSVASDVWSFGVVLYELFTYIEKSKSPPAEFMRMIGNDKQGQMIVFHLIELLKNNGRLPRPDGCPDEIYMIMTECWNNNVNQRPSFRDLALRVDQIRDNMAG

With `COc1cc(Nc2nccc(Nc3cccc(C4(C#N)CC4)c3)n2)ccc1N1CCN(C)CC1` [Compound 4, 1-(3-(2-(3-methoxy-4-(4-methylpiperazin-1-yl)phenylamino)pyrimidin-4-ylamino)phenyl)cyclopropanecarbonitrile], the IC50 against JAK2 kinase is less than 10 nM. The same compound returned an IC50 at ALK2 of 10 to 1000 nM. The “hepcidin expression in mice compared to compound A” value in the data set with hepcidin expression is reported as “inhibit hepcidin expression to a greater extent than compound A”. This compound also yielded a F in data set [1] (IV) of 100.0 % IV. Besides, in data set [1] (setting [2]), the F is on record as 15.4 % IV, the AUC 0-inf was 852 ng·h/mL, the Cmax worked out at 118 ng/mL and the time to peak (Tmax) worked out at 2 h. The half-life in data set [1] (setting [2]) is 6.5 h. Further, the “plasma concentration levels after 24 hours” value in data set [1] (female rats, 24 hours) is “remain high”. In addition, in data set [1] (iv), the AUC 0-inf turned out to be 1380 ng·h/mL, the peak concentration (Cmax) was 996 ng/mL, the Tmax was 0 h and the half-life is 9.2 h.
